# Test: particle size distribution by laser light scattering
# Format: physicochemical
# Settings: volumetric, product of working example 1
# Description: The product is obtained in a particularly finely divided form with a narrow particle size distribution. The latter can, for example, be seen from the ratio of the D values, D99, D90, D50, (D10). The D value indicates the percentage of particles smaller than the diameter given as the respective D value. The percentage is given as index, i.e.: D90= . . . means “90% of the particles have a (volumetrically determined) diameter of less than . . . ”. The associated data are obtained by means of laser light scattering.
# The particle size distribution of the zinc bisglycinate produced as described in working example 1 and shown in FIG. 2a was examined more closely by means of laser light scattering. The results are shown in graph form in FIG. 2c.
structure (smiles),measurement,value
"NCC(=O)[O-].NCC(=O)[O-].[Zn+2] [zinc bisglycinate, bis(glycinato-N,O)zinc]",D10 (10% of the particles have diameters of less than),0.86 μm
same,D50 (50% of the particles have diameters of less than),3.41 μm
same,D90 (90% of the particles have diameters of less than),6.82 μm
same,D99 (99% of the particles have diameters of less than),10.00 μm
